Assay results published in the CheMixHub viscosity set.
“And” between values parts separate entries of the source, which are not always exact repeats. Identical values can stand only once.

Test: xn = mol fraction of the nth substance listed

CNCCO + CCCCOCCO
viscosity, 101.3 kPa
Details | 293.15 K | 298.15 K | 303.15 K | 308.15 K | 313.15 K | 318.15 K | 323.15 K
x1 = 0.149 | 4.016 mPa·s | 3.469 mPa·s | 3.02 mPa·s | 2.649 mPa·s | 2.339 mPa·s | 2.077 mPa·s | 1.856 mPa·s
x1 = 0.403 | 5.748 mPa·s | 4.862 mPa·s | 4.158 mPa·s | 3.584 mPa·s | 3.112 mPa·s | 2.725 mPa·s | 2.401 mPa·s
x1 = 0.512 | 6.672 mPa·s and 6.73 mPa·s | 5.591 mPa·s and 5.64 mPa·s | 4.739 mPa·s and 4.78 mPa·s | 4.054 mPa·s and 4.09 mPa·s | 3.5 mPa·s and 3.53 mPa·s | 3.045 mPa·s and 3.07 mPa·s | 2.667 mPa·s and 2.69 mPa·s
x1 = 0.611 | 7.632 mPa·s | 6.341 mPa·s | 5.331 mPa·s | 4.528 mPa·s | 3.883 mPa·s | 3.358 mPa·s | 2.926 mPa·s
x1 = 0.702 | 8.54 mPa·s | 7.04 mPa·s | 5.87 mPa·s | 4.95 mPa·s | 4.22 mPa·s | 3.63 mPa·s | 3.15 mPa·s
x1 = 0.786 | 9.713 mPa·s | 7.929 mPa·s | 6.563 mPa·s | 5.498 mPa·s | 4.657 mPa·s | 3.983 mPa·s | 3.436 mPa·s
x1 = 0.934 | 12.07 mPa·s | 9.674 mPa·s | 7.893 mPa·s | 6.525 mPa·s | 5.461 mPa·s | 4.621 mPa·s | 3.948 mPa·s

CNC(C)=O + CCCCn1cc[n+](C)c1.F[B-](F)(F)F
101 kPa
Details | viscosity [mPa·s]
293.15 K, x2 = 0.8495 | 82.55
308.15 K, x2 = 0.714 | 24.65

CCOCCO + CCCO
viscosity [mPa·s]
Details | 298.15 K | 303.15 K | 308.15 K | 313.15 K
101 kPa, x1 = 0.069 | 1.942 | – | – | –
101 kPa, x1 = 0.1429 | 1.891 | – | – | –
101 kPa, x1 = 0.2223 | 1.852 | – | – | –
101 kPa, x1 = 0.3078 | 1.826 | – | – | –
101 kPa, x1 = 0.4001 | 1.811 | – | – | –
101 kPa, x1 = 0.5001 | 1.806 | – | – | –
101 kPa, x1 = 0.6088 | 1.81 | – | – | –
101 kPa, x1 = 0.7273 | 1.823 | – | – | –
101 kPa, x1 = 0.8572 | 1.839 | – | – | –
101.33 kPa, x1 = 0.0969 | 1.815 | 1.607 | 1.431 | 1.272
101.33 kPa, x1 = 0.199 | 1.761 | 1.56 | 1.395 | 1.244
101.33 kPa, x1 = 0.2917 | 1.73 | 1.542 | 1.376 | 1.235
101.33 kPa, x1 = 0.3971 | 1.659 | 1.482 | 1.326 | 1.178
101.33 kPa, x1 = 0.4928 | 1.711 | 1.521 | 1.366 | 1.223
101.33 kPa, x1 = 0.5933 | 1.721 | 1.531 | 1.377 | 1.233
101.33 kPa, x1 = 0.6923 | 1.732 | 1.546 | 1.386 | 1.232
101.33 kPa, x1 = 0.7987 | 1.754 | 1.567 | 1.403 | 1.265
101.33 kPa, x1 = 0.8853 | 1.774 | 1.578 | 1.418 | 1.402
